This note sets out measurements from US12370192B2, “Azole-fused pyridazin-3(2H)-one derivatives” (TAKEDA PHARMACEUTICAL COMPANY LIMITED, priority 2019, dated 2025).

Assay [1] addresses T1, human GPR139 receptor (Homo sapiens, UniProt Q6DWJ6).
T1 construct: expressed in transfected cells; host or cells: T-REx-CHO (Thermo Fisher Scientific), doxycycline-induced
T1 sequence (Q6DWJ6 1-353): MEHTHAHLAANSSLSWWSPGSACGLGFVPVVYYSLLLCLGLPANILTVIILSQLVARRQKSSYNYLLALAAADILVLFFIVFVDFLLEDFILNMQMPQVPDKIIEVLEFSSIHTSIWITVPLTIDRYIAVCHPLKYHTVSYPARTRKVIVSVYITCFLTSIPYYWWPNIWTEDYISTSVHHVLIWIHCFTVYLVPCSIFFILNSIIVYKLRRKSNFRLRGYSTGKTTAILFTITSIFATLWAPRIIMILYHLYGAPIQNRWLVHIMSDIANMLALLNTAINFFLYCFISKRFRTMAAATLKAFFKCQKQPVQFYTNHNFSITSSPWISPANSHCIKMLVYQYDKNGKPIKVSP
The assay is described as follows: GPR139 Competition Binding (membrane-based, tritium-labeled ligand). As to conditions: T-REx-CHO membranes with human GPR139; 6.5 nM tritium-labeled ligand; 11-point curve, 30 μM maximum concentration; read-out: GPR139 Binding Affinity (pKi) (converted). In outline: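 Membranes came from doxycycline-induced T-REx-CHO cells expressing human GPR139. They were incubated 20 min at room temperature with 6.5 nM tritiated ligand and compound (11 points, top 30 μM) in HEPES pH 7.3 buffer with MgCl2/CaCl2. Filter-bound counts gave Ki by four-parameter fit, reported as pKi.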

Assay [2] deals with T1, human GPR139 receptor. The assay is described as follows: Measurement of GPR139 Activation Via Calcium Signaling (FLIPR, T-REx-CHO cells). It is filed as cell-based. The settings on record: T-REx-CHO cells stably expressing human GPR139, 11-point dose response, 10 μM maximum concentration, read-out: GPR139 Potency (pEC50) (converted). The gist of the method:
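T-REx-CHO cells stably carrying human GPR139 under tetracycline control, induced with 2 μg/mL doxycycline for 17 h at 37 °C, loaded 40 min with Calcium 5 dye plus probenecid in HBSS/HEPES pH 7.4. Agonist added as 11-point series (10 μM top); fluorescence read 1 min; pEC50 from four-parameter fit.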

On to `Cc1nn(C23CC(C2)C3)c2cnn(CC(=O)N[C@@H](C)c3ccc(C(F)(F)F)cc3)c(=O)c12` [Example 156, (S)-2-(1-(bicyclo[1.1.1]pentan-1-yl)-3-methyl-4-oxo-1,4-dihydro-5H-pyrazolo[3,4-d]pyridazin-5-yl)-N-(1-(4-(trifluoromethyl)phenyl)ethyl)acetamide], for which the Ki on human GPR139 receptor [1] is 331 nM. Also, at human GPR139 receptor [2], the EC50 is 107 nM.
On the same counts, the results for `Cc1ccc([C@H](C)NC(=O)Cn2nc(C)c3cnn(C(C)(C)C)c3c2=O)c(F)c1` [Example 16, (S)-2-(1-(tert-butyl)-4-methyl-7-oxo-1,7-dihydro-6H-pyrazolo[3,4-d]pyridazin-6-yl)-N-(1-(2-fluoro-4-methylphenyl)ethyl)acetamide] are 11 nM and 200 nM.
With `Cc1nn(CC(=O)N[C@@H](C)c2ccc(F)cc2Cl)c(=O)c2c1c(C)nn2C1CC1` [Example 71, (S)—N-(1-(2-chloro-4-fluorophenyl)ethyl)-2-(1-cyclopropyl-3,4-dimethyl-7-oxo-1,7-dihydro-6H-pyrazolo[3,4-d]pyridazin-6-yl)acetamide], the Ki at human GPR139 receptor [1] was 0.398 nM. Besides, the EC50 at human GPR139 receptor [2] is 93.3 nM.
Regarding `Cc1nn(C2CC2)c2cnn(CC(=O)N[C@@H](C)c3ccc(F)cc3F)c(=O)c12` [Example 128, (S)-2-(1-cyclopropyl-3-methyl-4-oxo-1,4-dihydro-5H-pyrazolo[3,4-d]pyridazin-5-yl)-N-(1-(2,4-difluorophenyl)ethyl)acetamide], on human GPR139 receptor [1], the Ki was 257 nM. Moreover, the EC50 at human GPR139 receptor [2] was 67.6 nM.
On the same counts, the results for `Cc1ccc([C@H](C)NC(=O)Cn2nc(C)c3c(c(C)nn3C)c2=O)c(F)c1` [Example 111, (S)—N-(1-(2-fluoro-4-methylphenyl)ethyl)-2-(1,3,7-trimethyl-4-oxo-1,4-dihydro-5H-pyrazolo[3,4-d]pyridazin-5-yl)acetamide] are 42.7 nM and 148 nM.
On to `Cc1ccc([C@H](C)NC(=O)Cn2nc(C)c3cnn(C)c3c2=O)cc1` [Example 39, (S)-2-(1,4-dimethyl-7-oxo-1,7-dihydro-6-pyrazolo[3,4-d]pyridazin-6-yl)-N-(1-(p-totyl)ethyl)acetamide], for which the Ki at human GPR139 receptor [1] was 229 nM. Also, at human GPR139 receptor [2], the EC50 was 36.3 nM.
On the same counts, the results for `COc1ccc([C@H](C)NC(=O)Cn2nc(C)c3c(c(C(C)C)nn3C)c2=O)cc1F` [Example 10, (S)—N-(1-(3-fluoro-4-methoxyphenyl)ethyl)-2-(3-isopropyl-1,7-dimethyl-4-oxo-1H-pyrazolo[3,4-d]pyridazin-5(4H)-yl)acetamide] are 120 nM and 79.4 nM.
The matching figures for `C[C@H](NC(=O)Cn1ncc2c(C3CC3)nn(C)c2c1=O)c1ccc(C(F)(F)F)cc1` [Example 142, (S)-2-(3-cyclopropyl-1-methyl-7-oxo-1,7-dihydro-6H-pyrazolo[3,4-d]pyridazin-6-yl)-N-(1-(4-(trifluoromethyl)phenyl)ethyl)acetamide]: 229 nM and 95.5 nM.
The matching figures for `C[C@H](NC(=O)Cn1nc(C2CC2)c2cnn(-c3ccccc3)c2c1=O)c1ccc(C(F)(F)F)cc1` [Example 44, (S)-2-(4-cyclopropyl-7-oxo-1-phenyl-1,7-dihydro-6H-pyrazolo[3,4-d]pyridazin-6-yl)-N-(1-(4-(trifluoromethyl)phenyl)ethyl)acetamide]: 105 nM and 3630 nM.
`Cc1nn(CC(=O)N[C@@H](C)c2ccc(OC(F)(F)F)cc2)c(=O)c2cnn(C)c12` [Example 73, (S)-2-(1,7-dimethyl-4-oxo-1,4-dihydro-5H-pyrazolo[3,4-d]pyridazin-5-yl)-N-(1-(4-(trifluoromethoxy)phenyl)ethyl)acetamide]: the Ki on human GPR139 receptor [1] is 3470 nM. Moreover, the EC50 at human GPR139 receptor [2] was 63.1 nM.
The matching figures for `Cc1ccc([C@H](C)NC(=O)Cn2ncc3c(c(C(F)(F)F)nn3C)c2=O)cc1` [Example 169, (S)-2-(1-methyl-4-oxo-3-(trifluoromethyl)-1,4-dihydro-5H-pyrazolo[3,4-d]pyridazin-5-yl)-N-(1-(p-tolyl)ethyl)acetamide]: 75.9 nM and 51.3 nM.
The matching figures for `Cc1nn(C(C)C)c2c(=O)n(CC(=O)N[C@@H](C)c3ccc(C(F)(F)F)cn3)ncc12` [Example 103, (S)-2-(1-isopropyl-3-methyl-7-oxo-1,7-dihydro-6H-pyrazolo[3,4-d]pyridazin-6-yl)-N-(1-(5-(trifluoromethyl)pyridin-2-yl)ethyl)acetamide]: 10000 nM and 219 nM.
On the same counts, the results for `Cc1nn(C2CC2)c2cnn(CC(=O)N[C@@H](C)c3ccc(C(F)(F)F)cc3)c(=O)c12` [Example 107, (S)-2-(1-cyclopropyl-3-methyl-4-oxo-1,4-dihydro-5H-pyrazolo[3,4-d]pyridazin-5-yl)-N-(1-(4-(trifluoromethyl)phenyl)ethyl)acetamide] are 245 nM and 42.7 nM.
